According to patent US6329392A, “Substituted piperidines useful for the treatment of allergic diseases” (Aventis Pharmaceuticals, Inc., priority 1998, dated 2001):
pIC50: −log10 of the molar value. Where two headings read alike, the source gives them in different places.

What was measured:
[1] = molecular target: T1, H1 receptor (Cavia porcellus, UniProt P31389); test: Histamine (H1) antagonism in guinea pig ileum; format: cell-based
T1 construct: A piece of ileum, about 20 cm in length, is removed and cut into 2 cm pieces; from tissue; host or cells: ileum of male Hartley guinea pigs
T1 sequence (P31389 whole entry): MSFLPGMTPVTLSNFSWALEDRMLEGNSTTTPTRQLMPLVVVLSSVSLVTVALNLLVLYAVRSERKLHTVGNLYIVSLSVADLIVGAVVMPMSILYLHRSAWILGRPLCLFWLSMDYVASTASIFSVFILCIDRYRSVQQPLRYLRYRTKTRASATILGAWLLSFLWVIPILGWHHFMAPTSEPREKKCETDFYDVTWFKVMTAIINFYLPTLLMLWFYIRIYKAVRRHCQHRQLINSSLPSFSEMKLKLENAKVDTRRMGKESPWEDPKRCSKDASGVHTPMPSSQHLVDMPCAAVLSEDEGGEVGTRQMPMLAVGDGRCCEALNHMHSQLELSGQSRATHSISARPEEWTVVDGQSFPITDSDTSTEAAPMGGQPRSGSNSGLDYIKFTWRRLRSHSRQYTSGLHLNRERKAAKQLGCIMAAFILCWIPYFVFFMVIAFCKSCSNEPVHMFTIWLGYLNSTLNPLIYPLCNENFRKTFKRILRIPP
Protocol: Male Hartley guinea pigs, weighing 200-450 grams, are sacrificed by CO2 asphyxiation. A piece of ileum, about 20 cm in length, is removed and cut into 2 cm pieces. Each ileum piece is placed in an organ bath at 37° C. containing Tyrode's solution and is constantly aerated with 95% O2 /5%CO2. Tyrode's solution has the composition: NaCl 136.9 mM, KCl […], CaCl2 1.8 mM, NaH2 PO4 0.42 mM, NaHCO3 11.9 mM, and dextrose 5.55 mM. Contractions are measured with an isometric transducer (Grass FTO3C), and are recorded on a polygraph recorder and/or a computer. The ileum strips are loaded with 1.0 grams of tension and allowed to equilibrate for a minimum of 30 minutes before starting the experiments.
The potency of the antagonism is determined by the magnitude of the shift and is expressed as a pA2 value which is the negative logarithm of the molar concentration of antagonist which produces a two-fold shift of the dose response curve to the right. The pA2 value is calculated by using Schild analysis. O. Arunlakshana and H. O. Schild, Br. J. Pharmacol Chemother. 14, 48-58 (1958).
Table 1 presents pA2 values by the method of Example 93 which indicate potency of H1 receptor antagonism and IC50 values by the method of Example 95 which indicates NK1 receptor binding affinity for representative compounds of the present invention.

[2] = molecular target: T2, NK1 receptor (Cavia porcellus, UniProt P30547); test: Antagonism of iodinated tachykinin (substance P) binding to NK1 receptors in guinea pig lungs; conditions: read-out: NK1 Receptor Binding Affinity, IC50
T2 construct: as evaluated in guinea pig lungs (Keystone Biologicals, Cleveland, Ohio); tissue Keystone Biologicals, Cleveland, Ohio; host or cells: guinea pig lung membranes
T2 sequence (P30547 whole entry): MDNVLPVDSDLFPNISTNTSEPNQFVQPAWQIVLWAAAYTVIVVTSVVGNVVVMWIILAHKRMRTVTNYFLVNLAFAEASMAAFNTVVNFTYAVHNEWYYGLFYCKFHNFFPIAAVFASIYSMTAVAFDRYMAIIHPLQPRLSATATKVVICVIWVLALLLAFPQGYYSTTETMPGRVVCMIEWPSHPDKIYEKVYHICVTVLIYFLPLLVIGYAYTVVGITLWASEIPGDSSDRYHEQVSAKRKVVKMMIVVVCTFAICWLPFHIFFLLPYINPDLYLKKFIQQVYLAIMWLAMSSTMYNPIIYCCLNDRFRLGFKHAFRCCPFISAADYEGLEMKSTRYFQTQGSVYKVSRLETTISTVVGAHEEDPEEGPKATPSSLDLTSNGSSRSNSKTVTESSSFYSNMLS
Protocol: Antagonism of iodinated tachykinin binding to NK1 receptors by putative antagonists
One skilled in the art can measure the NK1 receptor affinity of proposed tachykinin antagonists as evaluated in guinea pig lungs (Keystone Biologicals, Cleveland, Ohio). Tissues or cells are homogenized with a Polytron in 15 volumes of 50 mM Tris-HCl buffer (pH 7.4, […]) and centrifuged. The pellet is resuspended in Tris-HCl buffer and centrifuged; the pellet is washed twice by resuspension. The final pellet is resuspended at a concentration of 40 mg/ml incubation buffer and remains at room temperature for at least 15 min prior to use. […] Incubations are performed at room temperature for 90 min; binding is terminated by addition of 50 mM Tris-HCl buffer (pH 7.4, […]) and filtration under vacuum through GF/B filters presoaked with 0.1% polyethyleneimine. Filter bound radioactivity is quantitated in a gamma counter. […] IC50 values (concentration required to inhibit 50% of receptor binding) are generated for each of the test compounds by nonlinear regression using an iterative curve fitting program (GraphPAD Inplot, San Diego, Calif.).

[3] = read-out: H1 Receptor Antagonism, pA2, in vitro (converted)
[4] = guinea pig lungs, 0.1 nM 125I-Bolton Hunter Lys-3 labeled substance P, room temperature 90 min, pH 7.4

| SMILES | Kb [1, 3] [nM] | pIC50 [2] | pIC50 [2, 4] | Kb [1] [nM] |
| --- | --- | --- | --- | --- |
| COc1cc(C(=O)N2CCC(CCN3CCC(C(=O)c4nc5ccccc5n4Cc4ccc(F)cc4)CC3)(c3ccc(Cl)c(Cl)c3)C2)cc(OC)c1OC (single isomer, unassigned; (+)) [Example 14, (+)-1-(3,4,5-Trimethoxy-benzoyl)-3-[2-[4-[1-(4-fluoro-benzyl)-1 H-benzoimidazole-2-carbonyl]-piperidin-1-yl]-ethyl]-3-(3,4-dichloro-phenyl)-pyrrolidine] | 50.1 | 7.54 | – | – |
| CCOCCn1c(C2(O)CCN(CCC3(c4ccc(Cl)c(Cl)c4)CCN(C(=O)c4cc(OC)c(OC)c(OC)c4)C3)CC2)nc2ccccc21 (single isomer, unassigned; (+)) [Example 81, (+)-1-(3,4,5-Trimethoxy-benzoyl)-3-[2-[4-[1-(2-ethoxy-ethyl)-1H-benzoimidazole]-4-hydroxy-piperidin-1-yl]-ethyl]-3-(3,4-dichloro-phenyl)-pyrrolidine] | 525 | 8.00 | – | – |
| COc1ccc(C2(CCN3CCC(C(=O)c4nc5ccccc5n4Cc4ccc(F)cc4)CC3)CCN(C(=O)c3cc(OC)c(OC)c(OC)c3)C2)cc1OC (stereo not drawn) [Example 1, 1-(3,4,5-Trimethoxy-benzoyl)-3-[2-[4-[1-(4-fluoro-benzyl)-1H-benzoimidazole-2-carbonyl]-piperidin-1-yl]-ethyl]-3-(3,4-dimethoxy-phenyl)-pyrrolidine] | 31.6 | – | 7.51 | – |
| COc1ccc(C2(CCN3CCC(C(=O)c4nc5ccccc5n4Cc4ccc(F)cc4)CC3)CCN(C(=O)c3ccccc3)C2)cc1OC (stereo not drawn) [Example 2, 1-Benzoyl-3-[2-[4-[1-(4-fluoro-benzyl)-1 H-benzoimidazole-2-carbonyl]-piperidin-1-yl]-ethyl]-3-(3,4-dimethoxy-phenyl)-pyrrolidine] | – | – | – | 26.9 |
| COc1ccc(C2(CCN3CCC(O)(c4nc5ccccc5n4Cc4ccc(F)cc4)CC3)CCN(C(=O)c3ccccc3)C2)cc1OC (stereo not drawn) [Example 3, 1-Benzoyl-3-[2-[4-[1-(4-fluoro-benzyl)-1 H-benzoimidazol-2-yl]-4-hydroxy-piperidin-1-yl]-ethyl]-3-(3,4-dimethoxy-phenyl)-pyrrolidine] | – | 6.39 | – | 37.2 |
| COc1ccc(C2(CCN3CCC(c4nc5ccccc5s4)CC3)CCN(C(=O)c3ccccc3)C2)cc1OC (stereo not drawn) [Example 4, 1-Benzoyl-3-[2-[4-(benzothiazol-2-yl)-piperidin-1-yl]-ethyl]-3-(3,4-dimethoxy-phenyl)-pyrrolidine] | 158 | 5.59 | – | – |
| COc1ccc(C2(CCN3CCC(O)(c4nc5ccccc5n4Cc4ccc(F)cc4)CC3)CCN(C(=O)c3cc(OC)c(OC)c(OC)c3)C2)cc1OC (stereo not drawn) [Example 5, 1-(3,4,5-Trimethoxy-benzoyl)-3-[2-[4-[1-(4-fluoro-benzyl)-1 H-benzoimidazol-2-yl]-4-hydroxy-piperidin-1-yl]-ethyl]-3-(3,4-dimethoxy-phenyl)-pyrrolidine] | 269 | 7.60 | – | – |
| COc1cc(C(=O)N2CCC(CCN3CCC(C(=O)c4nc5ccccc5n4Cc4ccc(F)cc4)CC3)(c3ccc(Cl)c(Cl)c3)C2)cc(OC)c1OC (stereo not drawn) [Example 6, 1-(3,4,5-Trimethoxy-benzoyl)-3-[2-[4-[1-(4-fluoro-benzyl)-1 H-benzoimidazole-2-carbonyl]-piperidin-1-yl]-ethyl]-3-(3,4-dichloro-phenyl)-pyrrolidine] | 141 | 7.07 | – | – |
| COc1cc(C(=O)N2CCC(CCN3CCC(O)(c4nc5ccccc5n4Cc4ccc(F)cc4)CC3)(c3ccc(Cl)c(Cl)c3)C2)cc(OC)c1OC (stereo not drawn) [Example 7, 1-(3,4,5-Trimethoxy-benzoyl)-3-[2-[4-[1-(4-fluoro-benzyl)-1 H-benzoimidazol-2-yl]-4-hydroxy-piperidin-1-yl]-ethyl]-3-(3,4-dichloro-phenyl)-pyrrolidine] | – | 7.19 | – | 38.9 |
| COc1ccc(C2(CCN3CCC(C(O)(c4ccccc4)c4ccccc4)CC3)CCN(C(=O)c3cc(OC)c(OC)c(OC)c3)C2)cc1OC (stereo not drawn) [Example 9, 1-(3,4,5-Trimethoxy-benzoyl)-3-[2-[4-(hydroxy-diphenyl-methyl)-piperidin-1-yl]-ethyl]-3-(3,4-dimethoxy-phenyl)-pyrrolidine] | 724 | 6.91 | – | – |
| COc1cc(C(=O)N2CCC(CCN3CCC(C(=O)c4nc5ccccc5n4Cc4ccc(F)cc4)CC3)(c3ccc4c(c3)OCO4)C2)cc(OC)c1OC (stereo not drawn) [Example 10, 1-(3,4,5-Trimethoxy-benzoyl)-3-[2-[4-[1-(4-fluoro-benzyl)-1 H-benzoimidazole-2-carbonyl]-piperidin-1-yl]-ethyl]-3-(benzo[1,3]dioxol-5-yl)-pyrrolidine] | 60.3 | – | 6.84 | – |
| COc1cc(C(=O)N2CCC(CCN3CCC(C(=O)c4nc5ccccc5n4Cc4ccc(F)cc4)CC3)(c3ccccc3)C2)cc(OC)c1OC (stereo not drawn) [Example 11, 1-(3,4,5-Trimethoxy-benzoyl)-3-[2-[4-[1-(4-fluoro-benzyl)-1 H-benzoimidazole-2-carbonyl]-piperidin-1-yl]-ethyl]-3-phenyl-pyrrolidine] | 33.9 | – | – | – |
| COc1cc(C(=O)N2CCC(CCN3CCC(C(=O)c4nc5ccccc5n4Cc4ccc(F)cc4)CC3)(c3ccc(C(F)(F)F)cc3)C2)cc(OC)c1OC (stereo not drawn) [Example 20, 1-(3,4,5-Trimethoxy-benzoyl)-3-[2-[4-[1-(4-fluoro-benzyl)-1 H-benzoimidazole-2-carbonyl]-piperidin-1-yl]-ethyl]-3-(4-trifluoromethyl-phenyl)-pyrrolidine] | 129 | 6.96 | – | – |
| COc1cc(C(=O)N2CCC(CCN3CCC(C(=O)c4nc5ccccc5n4Cc4ccc(F)cc4)CC3)(c3ccc(F)cc3F)C2)cc(OC)c1OC (stereo not drawn) [Example 25, 1-(3,4,5-Trimethoxy-benzoyl)-3-[2-[4-[1-(4-fluoro-benzyl)-1 H-benzoimidazole-2-carbonyl]-piperidin-1-yl]-ethyl]-3-(2,4-difluoro-phenyl)-pyrrolidine] | 141 | 6.49 | – | – |
| CC(C)Oc1cccc(CC(=O)N2CCC(CCN3CCC(C(=O)c4nc5ccccc5n4Cc4ccc(F)cc4)CC3)(c3ccc4c(c3)OCO4)C2)c1 (stereo not drawn) [Example 26, 1-(3-Isopropoxy-phenyl-acetyl)-3-[2-[4-[1-(4-fluoro-benzyl)-1 H-benzoimidazole-2-carbonyl]-piperidin-1-yl]-ethyl]-3-(benzo[1,3]dioxol-5-yl)-pyrrolidine] | 61.7 | 6.54 | – | – |
| COc1ccc(C(=O)N2CCC(CCN3CCC(C(=O)c4nc5ccccc5n4Cc4ccc(F)cc4)CC3)(c3ccc4c(c3)OCO4)C2)c(OC)c1OC (stereo not drawn) [Example 27, 1-(2,3,4-Trimethoxy-benzoyl)-3-[2-[4-[1-(4-fluoro-benzyl)-1 H-benzoimidazole-2-carbonyl]-piperidin-1-yl]-ethyl]-3-(benzo[1,3]dioxol-5-yl)-pyrrolidine] | 20.9 | 6.43 | – | – |
| CCOc1cc(C(=O)N2CCC(CCN3CCC(C(=O)c4nc5ccccc5n4Cc4ccc(F)cc4)CC3)(c3ccc(OC)c(OC)c3)C2)cc(OCC)c1OCC (stereo not drawn) [Example 28, 1-(3,4,5-Triethoxy-benzoyl)-3-[2-[4-[1-(4-fluoro-benzyl)-1 H-benzoimidazole-2-carbonyl]-piperidin-1-yl]-ethyl]-3-(3,4-dimethoxy-phenyl)-pyrrolidine] | 20.4 | – | 5.91 | – |
| COc1cc(C(=O)N2CCC(CCN3CCC(C(=O)c4nc5ccccc5n4CCN4CCOCC4)CC3)(c3ccc(Cl)c(Cl)c3)C2)cc(OC)c1OC (stereo not drawn) [Example 32, 1-(3,4,5-Trimethoxy-benzoyl)-3-[2-[4-[1-(2-(morpholin-4-yl)-ethyl)-1 H-benzoimidazole-2-carbonyl]-piperidin-1-yl]-ethyl]-3-(3,4-dichlororphenyl)-pyrrolidine] | 513 | 7.82 | – | – |
| COc1cc(C(=O)N2CCC(CCN3CCC(C(=O)c4nc5ccccc5n4Cc4ccccn4)CC3)(c3ccc(Cl)c(Cl)c3)C2)cc(OC)c1OC (stereo not drawn) [Example 33, 1-(3,4,5-Trimethoxy-benzoyl)-3-[2-[4-[1-(pyrid-2-ylmethyl)-1 H-benzoimidazole-2-carbonyl]-piperidin-1-yl]-ethyl]-3-(3,4-dichloro-phenyl)-pyrrolidine] | 41.7 | 7.42 | – | – |
